Reference: US5955076A, “Immunoactive peptides and antibodies and their use in anti-allergy treatment” (Peptide Therapeutics Limited, priority 1989, dated 1999)
Where no end group is shown, it is not given here.

Key:
[1] = system: rats experimentally sensitised to ovalbumin; assay: Serum histamine after systemic ovalbumin challenge of immunised, experimentally sensitised rats; type: in vivo, rat
[2] = system: rat peritoneal mast cells; design: dose or concentration left out as unconfirmed; conditions: concentration range; in words; cited from earlier work

Substance	Histamine release ([1]; A = immunised before experimental sensitisation, Control A 300) [ng/mL]	Histamine release ([1]; B = immunised after experimental sensitisation, Control B 950) [ng/mL]	non-cytolytic release of histamine from rat peritoneal mast cells in vitro [2]
Lys-Tyr-Asn-Gly-Ser-Asn-Gln-Arg-Phe-Phe-Ile-Phe-NH2 (KYNGSNQRFFIF-NH2) [F49, histamine releasing rat ε-chain dodecapeptide, used as immunogen]	0	50	–
KTKGSGFF [octapeptide (sequence 497-504)]	–	–	dose-dependent histamine release
RKTKGSGFF [nonapeptide (sequence 496-504)]	–	–	dose-dependent histamine release
KTKGSGFFVF [decapeptide (sequence 497-506)]	–	–	dose-dependent histamine release
